Results from a melting point compilation (Tetko et al.).

melting point | Compound
110 to 112 °C | Cn1c(C(N)c2ccccc2)nc2ccccc21 (stereo not drawn)
150 to 152 °C | O=C1CN(Cc2ccccc2)CCN1
123 to 125 °C | O=[N+]([O-])c1cc(Br)ccc1S
97 to 99 °C | COC(=O)c1ccccc1S(=O)(=O)Nc1ccccc1Cl
134 to 136 °C | Cc1cc(Cl)c2cc(Br)cc(C)c2n1
82 to 84 °C | Nc1cnn(-c2cccc(C(F)(F)F)c2)c1
47 to 49 °C | O=S(=O)(Cl)N1CC2CCC1C2 (stereo not drawn)
119 to 121 °C | CC(C)(C)OC(=O)NC(C(N)=NO)c1ccccc1OC(F)(F)F (stereo not drawn)
146 to 148 °C | NC(=O)CCC(NC(=O)CCC1CCCC1)C(=O)O (stereo not drawn)
144 to 146 °C | O=[N+]([O-])c1ccc(Oc2ccc([N+](=O)[O-])cc2)cc1
91 to 93 °C | Fc1cc(Br)cc2c(Cl)cc(C(F)(F)F)nc12
99 to 101 °C | CCN(CC)S(=O)(=O)c1ccc(N)cc1
239 to 241 °C | Cc1cnc2c(C)cnn2c1N
75 to 77 °C | CC(Cl)C(=O)NCc1ccccc1 (stereo not drawn)
116 to 118 °C | Clc1ccc(-c2cc(CBr)on2)cc1
112 to 114 °C | Nc1cccc(-n2ccnc2)c1
216 to 218 °C | Cn1c(O)nnc1S
165 to 167 °C | O=C(O)C#Cc1ccc2c(c1)OCO2
74 to 76 °C | CC(=O)CSc1ccccc1[N+](=O)[O-]
188 to 190 °C | O=C(CCl)N1CCc2[nH]c3ccccc3c2C1
86 to 88 °C | NCc1cccc(NC(=O)C2CCCC2)c1
177 to 179 °C | Cc1ccccc1-c1nn(-c2ccccc2)cc1C(=O)O
75 to 77 °C | CC(O)c1nc(-c2ccccc2)cs1 (stereo not drawn)
77 to 79 °C | COC(=O)CCCCCNC(=O)c1ccsc1

melting point | Compound
206 to 208 °C | CCCNC(=O)c1ccccc1N
69 to 71 °C | CN(C)c1cc(C#N)ccn1
46 to 48 °C | Nc1ccc(CC(F)(F)F)cc1
186 to 188 °C | CCOc1ccc2c(c1)C=C(C(=O)O)CO2
119 to 121 °C | CCOC(=O)c1cc2c(C)cc(C)cc2[nH]1
199 to 201 °C | O=C(O)c1ccc(S(=O)(=O)C2CCCC2)cc1
91 to 93 °C | N#CC(NC(=O)c1ccccc1)C1CC1 (stereo not drawn)
132 to 134 °C | NC(=S)c1ccco1
93 to 95 °C | O=C(O)C1CC(=O)N(C2CC2)C1 (stereo not drawn)
192 to 194 °C | CSc1cc(C(=O)O)c(Cl)cc1Cl
76 to 78 °C | NS(=O)(=O)C1CCCC1
77 to 79 °C | CC(C)c1cc(C(C)C)c([N+](=O)[O-])cc1[N+](=O)[O-]
104 to 106 °C | Nc1ncccc1OCc1cccnc1
139 to 141 °C | O=C1NCCN1CCN1CCNCC1
139 to 141 °C | O=C(O)Cc1cccc(OCc2cccnc2)c1
106 to 108 °C | CCOC(=O)c1c(NC(=O)CCl)sc(-c2ccccc2)c1C
106 to 108 °C | COC(=O)C1CCN(c2nc3ccccc3o2)CC1
112 to 114 °C | COc1cccc(-c2cc(N)n(-c3ccccc3)n2)c1
89 to 91 °C | CS(=O)(=O)CC1(CC(=O)O)CC1
179 to 181 °C | O=C(O)c1ccc(NC(=O)N2CCCCC2)c(F)c1
128 to 130 °C | Nc1ccccc1-c1[nH]nc2c1CCC2
70 to 72 °C | Cc1cc(Cl)nc(-c2cccnc2)n1
100 to 102 °C | CNS(=O)(=O)c1ccc(Cl)c(C(F)(F)F)c1
78 to 80 °C | CC(Cc1ccccc1)n1cccc1C(=O)O (stereo not drawn)

melting point | Compound
60 to 62 °C | CCNC(=O)C1CCCNC1 (stereo not drawn)
130 to 132 °C | O=S(=O)(c1ccc2c(c1)CCCN2)N1CCCC1
80 to 82 °C | CCOC(=O)Nc1snc(C)c1C(C)=O
251 to 253 °C | O=c1[nH]c2ccc(NCc3ccc(F)cc3)cc2[nH]1
61 to 63 °C | O=[N+]([O-])c1cc(S(=O)(=O)N2CCCCC2)ccc1Cl
128 to 132 °C | CC(C)C(Nc1ccc(C(F)(F)F)cc1Cl)C(=O)O (stereo not drawn)
115 to 117 °C | COC(=O)C(=O)NN
90 to 92 °C | O=C(CNCc1ccc(Cl)cc1)Nc1ccccc1F
110 to 112 °C | CC(C)(C)OC(=O)NC1CC2CCCC(C1)C2N (stereo not drawn)
206 to 208 °C | O=C(O)CCc1nc(-c2ccccn2)no1
235 to 237 °C | O=C(O)c1nn(-c2ccccc2F)cc1Br
44 to 46 °C | CC(C)S(N)(=O)=O
< 17 °C | CC1(CCc2ccccc2)NC(=O)N(N)C1=O (stereo not drawn)
194 to 196 °C | COc1ccc(CCNC(C)=O)cc1S(N)(=O)=O
149 to 151 °C | CS(=O)(=O)CCS(N)(=O)=O
81 to 83 °C | OCc1ccc(O)c(F)c1
310 to 312 °C | Nc1cccc(C(=O)O)n1
121 to 123 °C | O=C(O)C1CC(=O)N(c2ccc(F)cc2)C1 (stereo not drawn)
103 to 105 °C | CC(C)C(NC(=O)c1ccco1)C(=O)O (stereo not drawn)
144 to 146 °C | O=CC1=Cc2c(ccc3ccccc23)OC1
154 to 156 °C | CCc1n[nH]c(N)n1
120 to 122 °C | CCc1ccc(C(=O)Nc2ccc(N)cc2Cl)s1
247 to 249 °C | Cc1ccc(-c2ccc(C(=O)O)c(F)c2)cc1
130 to 132 °C | O=C1CCCc2nc(-c3ccccc3Br)sc21

melting point | Compound
78 to 80 °C | COc1cc(F)c([N+](=O)[O-])cc1F
103 to 105 °C | NS(=O)(=O)C1CN(C(=O)OCc2ccccc2)C1
171 to 173 °C | O=S(=O)(c1ccc2c(c1)CCN2)N1CCCCC1
171 to 173 °C | CC(C(=O)c1ccc(Br)cc1)N1C(=O)CCC1=O (stereo not drawn)
83 to 85 °C | Nc1cc(Cl)cc(Br)c1O
99 to 101 °C | CC(=O)c1ccc(S(=O)(=O)N(C)C)cc1
63 to 65 °C | O=[N+]([O-])c1cccc(OCC2CO2)c1 (stereo not drawn)
108 to 110 °C | CC1CCN(S(=O)(=O)c2ccc(N)cc2)CC1
255 to 257 °C | CC(CC(=O)O)C1CCNCC1 (stereo not drawn)
234 to 236 °C | O=C(O)C=Cc1cncc(F)c1
138 to 140 °C | COC(=O)c1cc(Br)cc(S(N)(=O)=O)c1
173 to 175 °C | C=CCOc1ccc(C(=O)O)cc1OC
189 to 191 °C | NC(=O)Nc1cccnc1
28 to 30 °C | CC(C)CC(=O)Cc1ccc(Cl)cc1Cl
130 to 132 °C | N#CC1(NC(=O)c2ccccc2)CCCC1
153 to 155 °C | Nc1ccc(Nc2ccc(F)cc2)c2ccncc12
90 to 92 °C | Cc1ccc(NC(=O)CO)c(Cl)c1
180 to 182 °C | COc1ccc(S(=O)(=O)N2CCOCC2)cc1NC(=O)CCl
161 to 163 °C | COc1ccc(CCNC(=O)CC(=O)NCCc2ccc(OC)cc2)cc1
115 to 117 °C | Nc1cncnc1-c1ccccc1
246 to 248 °C | C=CC(=O)Nc1ccc(C(=O)O)cc1
130 to 132 °C | Cc1nn(CC(F)(F)F)c(C)c1C(C)C(=O)O (stereo not drawn)
187 to 189 °C | Sc1nncn1-c1cccc(Cl)c1
172 to 174 °C | CNC(=O)c1cnc(C)s1

melting point | Compound
62 to 64 °C | O=C(Cl)c1cc([N+](=O)[O-])ccc1Br
198 to 200 °C | Nc1ncc(-c2ccccc2)s1
153 to 155 °C | COC(=O)c1sc2c(c1N)CCC(C(C)(C)C)C2 (stereo not drawn)
144 to 146 °C | CS(=O)(=O)c1cccc(C(=O)NN)c1
62 to 64 °C | Cc1cccc(NC(=O)[C@@H]2CCCN2)n1
69 to 71 °C | CC(C)(C)C1CCN(S(=O)(=O)Cl)CC1
164 to 166 °C | CCOc1cc(/C=C/C(=O)O)ccc1OC
114 to 116 °C | COc1cc(C=O)ccc1OCc1ccc(Cl)cc1Cl
195 to 197 °C | COc1cc(NC(=O)Cc2cccs2)c(C(=O)O)cc1OC
160 to 162 °C | O=C(O)c1cc(S(=O)(=O)Cl)cc(Br)c1Cl
195 to 197 °C | O=C(O)COc1ccc(-c2ccccc2)cc1
169 to 171 °C | NCc1ccc(N2CCCC(C(N)=O)C2)cc1 (stereo not drawn)
152 to 154 °C | NC(=NO)C12CC3CC(CC(C3)C1)C2
129 to 131 °C | CC(C)(C)Sc1ccc(C(N)=S)nc1
39 to 41 °C | CC(C)(C)NCCS(C)(=O)=O
196 to 198 °C | O=C(O)c1cc(C2CC2)nc2ccc(F)cc12
239 to 241 °C | Clc1cc2c(Cl)ncnc2[nH]1
60 to 62 °C | CCN(CC)Cc1ccc(O)c2ncccc12
69 to 71 °C | O=Cc1ccc(-n2ccnc2)c(F)c1
73 to 75 °C | CNC1CCN(c2cc(OC)cc(OC)c2)C1=O (stereo not drawn)
104 to 106 °C | N#CCc1c[nH]c2ccc(Cl)cc12
271 to 273 °C | Nc1nnc(-c2ccncc2)[nH]1
219 to 221 °C | COc1ccnc(NCc2cccc(C(=O)O)c2)n1
67 to 69 °C | Oc1ccc(Cl)cc1C(F)(F)F

melting point | Compound
214 to 216 °C | COc1ccccc1-c1nnc(N)[nH]1
54 to 56 °C | COCC1(O)CCNCC1
274 to 276 °C | O=c1ccc(-c2cccc([N+](=O)[O-])c2)n[nH]1
250 to 252 °C | Cc1ccc(C(=O)Nc2nc3ccc(N)cc3s2)s1
170 to 172 °C | O=C(O)c1cnn(-c2ccccc2Cl)c1
117 to 119 °C | Cc1sc(N=CN(C)C)c(C#N)c1C
269 to 271 °C | O=C(O)c1cnc2sccn2c1=O
111 to 113 °C | O=Cc1cnn(C2CCS(=O)(=O)C2)c1 (stereo not drawn)
< 17 °C | O=C(O)CSC1CCS(=O)(=O)C1 (stereo not drawn)
179 to 181 °C | O=C(O)c1ncn(-c2ccccc2)n1
151 to 153 °C | CCc1ccc(Nc2nnc(S)s2)cc1
145 to 147 °C | Cc1nc(-c2ccccc2)c(N)n1C
192 to 194 °C | O=c1cc2c(n[nH]1)CCCC2
148 to 150 °C | O=C(O)CCSCC(=O)Nc1ccc(Br)cc1
83 to 85 °C | O=C1CC2(CCSC2)C(=O)O1 (stereo not drawn)
77 to 79 °C | Cc1nn(-c2ccccc2)c(N)c1C(F)(F)F
182 to 184 °C | CN1C(=O)CCC(C(=O)O)C1c1cccc(Cl)c1 (stereo not drawn)
109 to 111 °C | COc1ccc(C=O)cc1OCc1ccc([N+](=O)[O-])cc1
92 to 94 °C | Nc1ccc(Cl)cc1-n1cccc1

Compound | melting point
Nc1cc(C(F)(F)F)ccc1C1CCNCC1 | 86 to 88 °C
N#Cc1c(O)c(Cl)c(Cl)c(C#N)c1Cl | 256 to 258 °C
CC(C)(C)n1cc(C(=O)O)cn1 | 155 to 157 °C
Clc1ccc(CN2CCNCC2)cn1 | 89 to 91 °C
